In PubChem BioAssay AID274 (DTP/NCI, 2004):
Several values for one entry are separate records, joined by “and”; a condition that tells them apart may be missing. Identical values can stand only once. Inconclusive results and toxic doses are left out. How the source made its calls: active means survival T/C of 150% or more; inactive means T/C below 125% in these data.

Test system: BDF1 mice, Lewis lung carcinoma iv, survival T/C
Assay: NCI In Vivo Anticancer Drug Screen. Data for tumor model Lewis Lung Carcinoma (intravenous) in B6D2F1 (BDF1) mice
Conditions: endpoint: median survival time, schedule: Q01DX009 (ip), higher = longer survival
Protocol: The antitumor activity of compounds was measured in mice bearing transplantable tumors. Survival or tumor size were measured and the results are expressed as the measurement made in the treated group (T) divided by the measurement made in the vehicle treated control group (C). The tumor model used in this assay is Lewis Lung Carcinoma (intravenous) in B6D2F1 (BDF1) mice

[1] = dose: 12.5 mg/kg/injection, vehicle: Klucel (hydroxypropylcellulose) (HPC)
[2] = dose: 25.0 mg/kg/injection, vehicle: Klucel (hydroxypropylcellulose) (HPC)
[3] = dose: 50.0 mg/kg/injection, vehicle: Klucel (hydroxypropylcellulose) (HPC)
[4] = dose: 100.0 mg/kg/injection, vehicle: Klucel (hydroxypropylcellulose) (HPC)
[5] = dose: 25.0 mg/kg/injection, vehicle: saline with Tween-80
[6] = dose: 50.0 mg/kg/injection, vehicle: saline with Tween-80
[7] = dose: 100.0 mg/kg/injection, vehicle: saline with Tween-80
[8] = dose: 200.0 mg/kg/injection, vehicle: saline with Tween-80
[9] = dose: 12.5 mg/kg/injection, vehicle: saline with Tween-80
[10] = dose: 400.0 mg/kg/injection, vehicle: saline with Tween-80

Measured: T/C

O.O.[NH-]C1CCCCC1[NH-].[Pt+2] (stereo not drawn)
inactive: dose: 0.31 mg/kg/injection, vehicle: dextrose 95 % of control | dose: 2.5 mg/kg/injection, vehicle: dextrose 99 % of control | dose: 5.0 mg/kg/injection, vehicle: dextrose 112 % of control | dose: 10.0 mg/kg/injection, vehicle: dextrose 117 % of control

O=C(O)/C=C/C(=O)Nc1ccc(Cl)c(Cl)c1
inactive: [1] 102 % of control | [2] 99 % of control | [3] 98 % of control | [4] 104 % of control

O=c1n(CC2CO2)c(=O)n(CC2CO2)c(=O)n1CC1CO1 (stereo not drawn)
inactive: dose: 6.25 mg/kg/injection, vehicle: suspension in saline 105 % of control and 100 % of control | dose: 12.5 mg/kg/injection, vehicle: suspension in saline 107 % of control and 101 % of control | dose: 25.0 mg/kg/injection, vehicle: suspension in saline 121 % of control and 101 % of control

c1cc2n(n1)CCN2
inactive: dose: 50.0 mg/kg/injection, vehicle: saline 105 % of control | dose: 100.0 mg/kg/injection, vehicle: saline 104 % of control | dose: 200.0 mg/kg/injection, vehicle: saline 86 % of control

Cc1nc(N)nc(N)c1-c1ccc(Cl)c(Cl)c1
inactive: dose: 0.31 mg/kg/injection, vehicle: saline 108 % of control | dose: 0.63 mg/kg/injection, vehicle: saline 109 % of control | dose: 1.25 mg/kg/injection, vehicle: saline 113 % of control | dose: 2.5 mg/kg/injection, vehicle: saline 120 % of control | dose: 5.0 mg/kg/injection, vehicle: saline 109 % of control

O=C(NCCCCCCNC(=O)N1CC1)N1CC1
inactive: dose: 0.3 mg/kg/injection, vehicle: saline 104 % of control | dose: 0.6 mg/kg/injection, vehicle: saline 119 % of control | dose: 1.2 mg/kg/injection, vehicle: saline 115 % of control | dose: 2.4 mg/kg/injection, vehicle: saline 120 % of control

COc1cc2ccnc(C=O)c2cc1OC
inactive: [5] 107 % of control | [6] 102 % of control | [7] 102 % of control | [8] 108 % of control

COc1ccc(C(=O)c2no[n+]([O-])c2C(=O)c2ccc(OC)cc2)cc1
inactive: [9] 104 % of control | [5] 102 % of control | [6] 95 % of control | [7] 98 % of control | [8] 100 % of control | [10] 111 % of control

CCN1CSC(=S)N(CC)C1
inactive: [5] 103 % of control | [6] 101 % of control | [7] 99 % of control

COc1ccc(OC)c(/C=C/c2ccnc3ccccc23)c1
inactive: [9] 94 % of control and 100 % of control | [5] 104 % of control and 117 % of control | [6] 94 % of control and 112 % of control | [7] 102 % of control and 109 % of control | [8] 101 % of control and 109 % of control | [10] 104 % of control and 119 % of control

Nc1ccc(Cl)cc1N
inactive: [9] 92 % of control | [5] 93 % of control | [6] 99 % of control | [7] 104 % of control | [8] 102 % of control

CCN(C)N=Nc1ccc(C(N)=O)cc1
inactive: dose: 6.25 mg/kg/injection, vehicle: Klucel (hydroxypropylcellulose) (HPC) 104 % of control | [1] 102 % of control | [2] 109 % of control | [3] 122 % of control | [4] 87 % of control

CN1N=C(N)c2cn(C3OC(COP(=O)(O)O)C(O)C3O)c3ncnc1c23 (stereo not drawn)
inactive: dose: 0.39 mg/kg/injection, vehicle: water 100 % of control | dose: 0.78 mg/kg/injection, vehicle: water 92 % of control | dose: 1.56 mg/kg/injection, vehicle: water 86 % of control | dose: 3.12 mg/kg/injection, vehicle: water 93 % of control | dose: 6.25 mg/kg/injection, vehicle: water 99 % of control | dose: 12.5 mg/kg/injection, vehicle: water 99 % of control
